# Test results reported in patent US7410553B2, “Building construction felt paper with biocide/anti-microbial treatment” (Atlas Roofing Corporation, priority 2005, dated 2008).
# Where two headings read alike, the source gives them in different places. Marks after values point to notes of the source that are not given here.
# Columns and labels:
# Aspergillus niger = assay: Agar-Plate Test Method (modified ASTM G-21), radial mycelial growth on biocide-containing agar; format: cell-based; conditions: for IC50 (ppm) Aspergillus niger: linear regression of radial growth
# Procedure: (§1) Five biocides were chosen for a comparative evaluation for inhibition activity against three common mold fungi. The evaluation was performed at the Forest Research Labs of Mississippi State University in Starkville, Miss. (“MSU”) using a substantially modified version of ASTM G-21, termed the “The Agar-Plate Test Method”. This method provides a rapid screening test for the evaluation of biocides against a wide variety of microorganisms.
# (§2) Five (5) biocide compositions (“biocides”) were evaluated using the Agar-Plate Test Method: (1) Microbe Shield, (2) Zinc Pyrithione (ZPT), (3) ortho-Phenyl Phenol, (4) Borogard ZB, and (5) a mixture evaluated of 50% Zinc Pyrithione with 50% Borogard ZB. These biocide compositions were added to autoclaved fungal media at different concentrations. […] Plugs of specific fungi were inoculated onto agar plates containing the different biocides/concentrations.
# (§3) For terminology, “hypha” (singular) and “hyphae” (plural) is/are a loose network of delicate filaments in a fungus. […] (plus the adjective form “mycelial”) is/are the main part of fungus, consisting of the feeding and reproducing hyphae, that forms the body of a fungus. Radial growth of a mycelia is measured and plotted against concentration. A linear regression is run to estimate the biocide concentration that inhibits radial growth by 50%. This Inhibitory Concentration is called the IC50.
# (§4) The five (5) different biocides that were involved in the comparative evaluations were tested at four (4) concentrations per biocide composition, plus a control (no biocide). The biocides were tested against three common mold fungi (Aspergillus niger, Cladosporium cladosporioides, and Penicillium funiculosum) with five (5) replicates for every treatment combination. The biocides that were tested and their concentrations were (1) Microbe Shield at 0, 3, 15, 75 and 375 ppm (“Parts Per Million”) ai (“Active Ingredient”); (2) Zinc Pyrithione at 0, 3, 15, 75 and 375 ppm ai; (3) ortho-Phenyl Phenol (“OPP”) at 0, 3, 15, 75 and 375 ppm ai; (4) Borogard ZB at 0, 10, 50, 250, and 1250 ppm ai; and (5) the 50:50 mixture of Zinc Pyrithione and Borogard ZB at 0, 1.5/5.0, 7.5/25, 37.5/125, and 187.5/625 ppm ai.
# (§5) Stock concentrations of each biocide were dissolved or suspended in water or acetone (only OPP was dissolved in acetone) to a concentration that allowed 1 ml of stock to be added to 250 ml of media in order to provide the highest required biocide concentration. Stocks were diluted in a 5 fold series to match the concentrations required. For each biocide concentration, 250 ml of Sabouraund Dextrose Agar in water was autoclaved and then cooled to 50° C. Then 1 ml of the appropriate biocide concentration was added to each flask. Control flasks received 1 ml of water or acetone (for OPP). Media was mixed, dispensed into Petri dishes and allowed to cool. Each biocide test used 90 agar plates including controls.
# (§6) A […] plug of agar was removed from every plate at the time of each study. A plug from an agar plate containing one of the fungi was inserted into the hole. The plug of fungi was taken from the leading edge of a fungal colony. Several plates of fungi were required for each study. The studies were grouped by fungi. The Cladosporium cladosporioides study began first; the Aspergillus niger study began next; and the Penicillium funiculosum study began last. Mycelial growth was measured for every plate in each study. Fast growing species were measured daily and slower growing species were measured every 2-3 days. All studies were carried for at least two weeks or until growth leveled out. Digital photographs were taken at different times during each fungal study.
# (§7) The average for the five replicates of each biocide concentration was determined and the averages plotted as growth over time for each biocide.
# [1] = tested on: Cladosporium cladosporioides; assay: as above; format: cell-based
# Procedure: as §1, §2, §3, §4, §5, §6, §7
# Penicillium funiculosum = assay: as above; format: cell-based
# Procedure: as §1, §2, §3, §4, §5, §6, §7
# other molds = tested on: other molds
# Text: (§8) As mentioned above, the example apparatus of FIG. 1 and any suitable biocide can be used for treating a nonwoven mat. Such biocides include but are not limited to those mentioned and evaluated, e.g., ZPT (zinc pyrithione), OPP (ortho-Phenyl Phenol), and Microbe Shield. […] A large number of differing levels of treatment were made and samples of each dosage rate retained.
# (§9) In order to establish a range of dosage levels that might quantify their effectiveness, four (4) dosage levels were utilized: (a) 62-grams/MSF; (2) 86-grams/MSF; (3) 116-grams/MSF, and (4) 123-grams/MSF; plus a zero grams/MSF(0) control. The unit of measure: “per MSF” or per “Thousand Square Feet”, rather than a unit of weight; e.g., “per Ton”, is the most common unit of sale for many special nonwoven webs.
# (§10) After the biocide was applied to the nonwoven web at the varying dosage levels, two different testing facilities were used to evaluate these samples: The Forest Research Labs of Mississippi State University (MSU), and the laboratory of Arch Chemicals, Inc. (“Arch”). MSU evaluated the treated samples for resistance to mold using testing procedures of, e.g., ASTM D 6329-98, “Standard Guide for Developing Methodology for Evaluating the Ability of Indoor Materials to Support Microbial Growth Using Static Environmental Chambers,” and Arch Chemicals utilized ASTM G 21-96 (Re-approved 2002), “Standard Practice for Determining Resistance of Synthetic Polymeric Materials to Fungi”, both from ASTM International, PA, USA.
# (§11) The MSU testing used the fungus Stachybotrys chartarum, but allowed “other molds” to enter the chamber. The Stachybotrys chartarum (ATCC 9182) was grown on Potato Dextrose Agar (“PDA”) and Sabouraud Dextrose Agar and allowed to sporulate (i.e., produce spores). This procedure followed ASTM C 1338-00, Standard Test Method for Determining Fungi Resistance of Insulation Materials and Facings. ASTM International, PA., USA. The solution was adjusted with additional sterile water until a spore count of approximately 940,000 cells per ml was obtained. This solution was the inoculum. A portion of this solution was also plated onto PDA to confirm the viable cell count. In the test, the nonwoven felt pieces were laid out with their treated side up, and inoculated with the spore suspension by an atomizer (ASTM C 1338-00). The pieces were allowed to air dry for several hours before being placed into the static environmental chambers. There were five replicates for each sample set (62-grams/MSF; 86-grams/MSF; 116-grams/MSF, and 123-grams/MSF; plus a zero (0) control) for each sampling period (2 weeks, 4 weeks, and 6 weeks).
# (§12) The numbers in Table 3 are in colony forming units (CFUs), a well known standard of measure prescribed, e.g., by ASTM 6329-98.
# [2] = tested on: Stachybotrys chartarum (ATCC 9182)
# Text: as §8, §9, §10, §11, §12
# [3] = by one of California's hazardous materials watchdog organizations; NIOSH does not draw that conclusion; cited from earlier work
# [4] = ppm ai in agar, totally inhibits fungal growth
# [5] = ppm ai in agar, linear regression of radial growth
# [6] = nonwoven felt with 62-g/MSF ZPT, Week Number 2
# [7] = nonwoven felt with 62-g/MSF ZPT, Week Number 4
# [8] = nonwoven felt with 62-g/MSF ZPT, Week Number 6
# [9] = nonwoven felt with 86-g/MSF ZPT, Week Number 2
# [10] = nonwoven felt with 86-g/MSF ZPT, Week Number 4
# [11] = nonwoven felt with 86-g/MSF ZPT, Week Number 6
# [12] = nonwoven felt with 116-g/MSF ZPT, Week Number 2
# [13] = nonwoven felt with 116-g/MSF ZPT, Week Number 4
# [14] = nonwoven felt with 116-g/MSF ZPT, Week Number 6
# [15] = nonwoven felt with 123-g/MSF ZPT, Week Number 2
# [16] = nonwoven felt with 123-g/MSF ZPT, Week Number 4
# [17] = nonwoven felt with 123-g/MSF ZPT, Week Number 6
# [18] = concluded from Table 3 and Table 4
# [19] = footnote a: extrapolation outside of the test concentration range
compound,measurement,setting,value
zinc pyrithione [Zn Pyrithione],IC50 (ppm) Aspergillus niger,Aspergillus niger; ppm ai in agar,9.2 ppm
same,MIC (ppm) Aspergillus niger,Aspergillus niger; [4],21.2 ppm
same,IC50 (ppm) Cladosporium cladosporioides,[1]; [5],≤ 1.8^b ppm
same,MIC (ppm) Cladosporium cladosporioides,[1]; [4],≤ 15^b ppm
same,IC50 (ppm) Penicillium Funiculosum,Penicillium funiculosum; [5],8.0 ppm
same,MIC (ppm) Penicillium Funiculosum,Penicillium funiculosum; [4],16.2 ppm
same,Other Mold colony forming units,other molds; [6],880 CFUs
same,Other Mold colony forming units,other molds; [7],3360 CFUs
same,Other Mold colony forming units,other molds; [8],19730 CFUs
same,Other Mold colony forming units,other molds; [9],530 CFUs
same,Other Mold colony forming units,other molds; [10],3450 CFUs
same,Other Mold colony forming units,other molds; [11],4100 CFUs
same,Other Mold colony forming units,other molds; [12],67 CFUs
same,Other Mold colony forming units,other molds; [13],125 CFUs
same,Other Mold colony forming units,other molds; [14],7540 CFUs
same,Other Mold colony forming units,other molds; [15],0 CFUs
same,Other Mold colony forming units,other molds; [16],54 CFUs
same,Other Mold colony forming units,other molds; [17],5380 CFUs
same,mold growth in the MSU test,[2]; biocide dose of 62-grams ZPT per MSF,mold DOES grow
same,amount of biocide at which mold resistance is optimum,[2]; [18],≥ 100 grams per MSF (per side)
same,amount of biocide at which significant mold resistance is imparted,[2]; [18],≥ 50 grams per MSF per side
same,Stachybotrys colony forming units,[2]; [6],0 CFUs
same,Stachybotrys colony forming units,[2]; [7],680 CFUs
same,Stachybotrys colony forming units,[2]; [8],3710 CFUs
same,Stachybotrys colony forming units,[2]; [9],0 CFUs
same,Stachybotrys colony forming units,[2]; [10],390 CFUs
same,Stachybotrys colony forming units,[2]; [11],1110 CFUs
same,Stachybotrys colony forming units,[2]; [12],0 CFUs
same,Stachybotrys colony forming units,[2]; [13],0 CFUs
same,Stachybotrys colony forming units,[2]; [14],0.2 CFUs
same,Stachybotrys colony forming units,[2]; [15],0 CFUs
same,Stachybotrys colony forming units,[2]; [16],0.4 CFUs
same,Stachybotrys colony forming units,[2]; [17],0 CFUs
"Oc1ccccc1-c1ccccc1 [OPP, ortho-Phenyl Phenol]",carcinogenicity rating,[3],human carcinogen
same,MIC,"Aspergillus niger; Aspergillus niger, read-out: MIC (ppm) Aspergillus niger",84.5 µg/mL
same,IC50 (ppm) Aspergillus niger,Aspergillus niger; ppm ai in agar,16.3 ppm
same,MIC,"[1]; Cladosporium cladosporioides, read-out: MIC (ppm) Cladosporium cladosporioides",≤ 375 µg/mL
same,IC50 (ppm) Cladosporium cladosporioides,[1]; [5],≤ 203.8^b ppm
same,MIC,"Penicillium funiculosum; Talaromyces funiculosus, read-out: MIC (ppm) Penicillium Funiculosum",≤ 375 µg/mL
same,IC50 (ppm) Penicillium Funiculosum,Penicillium funiculosum; [5],≤ 212.6^b ppm
"CCCCCCCCCCCCCCCCCC[N+](C)(C)CCC[Si](OC)(OC)OC.[Cl-] [Microbe Shield, 3-trimethixysilylpropyldimethyloctadecyl ammonium chloride]",MIC (ppm) Aspergillus niger,Aspergillus niger; [19],625^a ppm
same,IC50 (ppm) Aspergillus niger,Aspergillus niger; ppm ai in agar,286 ppm
same,IC50 (ppm) Cladosporium cladosporioides,[1]; [19],2025^a ppm
same,MIC (ppm) Cladosporium cladosporioides,[1]; [19],5575^a ppm
same,IC50 (ppm) Penicillium Funiculosum,Penicillium funiculosum; [19],670^a ppm
same,MIC (ppm) Penicillium Funiculosum,Penicillium funiculosum; [19],1289^a ppm
